According to publication PMC10398685 (ACS Omega, 2023):
pEC50: −log10 of the molar value.

Legend:
[1] = Plasma stability, mouse; type: in vitro ADME; settings: 5uM, triplicates
[2] = Steady-state intracellular uptake in VERO-E6 cells; type: in vitro ADME; settings: African green monkey, VERO-E6 cells; VERO-E6, 60 min incubation, 50 μM at t = 0; read-out: Kp (intracellular accumulation ratio IC/EC)
Description: (§1) While an enzymatic MTase assay represents a valuable fast screening platform providing the information that can be directly used for SAR analyses, it is not fully predictive for the compounds’ activity in whole cells. In order to verify the ability of the compounds to reach the intracellular compartment, we measured the steady-state accumulation of representative compounds in intact CCRF-CEM, VERO-E6, and Calu-3 cells (Tables 3 and S2). […] Compound 12q was almost completely cleared from the medium after 60 min incubation with the cells rendering it among the most permeable compounds of the series based on Kp values. It should be noted that the apparent intracellular concentration of the compounds may be biased by their potential metabolism. Therefore, we decided to subject the selected derivatives to in vitro stability studies. […]
(§2) 3.3. Intracellular Uptake
(§3) Steady-state cellular uptake was measured in CCRF-CEM cells (ATCC, CRL-119), VERO-E6 cells (ATCC, CRL-1586) and Calu-3 cells (HTB-55), respectively. […]
(§4) The medium was stored at −20 °C […]
(§5) for later analysis of the extracellular concentration of the compounds. The cells were washed two times with 1 mL PBS (900 x g, 5 min, +4 °C), and also stored at −20 °C for subsequent analysis of the intracellular concentration of the compounds. At the day of the analysis, both media and the pelleted cells were quickly thawed. The cell pellets were extracted with 200 μL of ice-cold methanol by vigorous shaking, further diluted 1:1 with water and centrifuged at 20 000 x g for 10 min. As for the media samples, 10 μL aliquots were extracted with 990 μL of 50% methanol. The samples were then transferred to ECHO® -compatible 384-well plates and the amount of analytes were quantified by the ECHO -MS® System (Sciex) where acoustic droplet ejection module is coupled with Sciex 6500® triple quadrupole mass spectrometer operating with an electrospray ionization source. Spectrometer was run in the multiple reaction monitoring (MRM) mode. When necessary, the processed samples were further diluted in 50% methanol to fit in the calibration range. Calibration curves of the compounds in 50% methanol were measured alongside the samples within the same run. The ra tio between the total compound concentration in the cells and compound concentration in the medium (K p) at t=60 min was calculated according to: Kp = (Acell / Vcell) / Cmedium, where Acell is the amount of compound in the cell lysate, Vcell is the CCRF-CEM cell volume (3.38 μL/10^7 cells)16 and Cmedium is the compound concentration in the medium sample after correcting for sample dilution. Experiments were performed in duplicates.
(§6) For adherent cells (Vero E6 and Calu-3), the workflow was modified as follows: Cells were seeded on 6-well plates at a concentration of […] and 8.2 x 10^5 cells/well for Vero E6 and Calu-3, respectively, in 3 mL of serum-free culture media. The cells were left to attach overnight, the medium was then aspirated and replenished with 2 mL of fresh media containing the compounds (50 µM final conc). After 60 min at 37 °C the media was aspirated and the cells were washed twice with 1 mL of PBS. Then, 1 mL of fresh PBS was added and the cells were subjected to three freeze-thaw cycles and further diluted with 1:1 with MeOH. The cell lysates and the media were further processed as described above. Intracellular volume of Vero E6 and Calu-3 cells (8.6 and 14 μL/107 cells, respectively) was calculated from their diameter determined by cell counter (Luna FL) while in suspension (following the trypsinization) assuming the homogenous spheres.

[3] = system: VERO-E6 cells; experiment: Steady-state intracellular uptake in VERO-E6 cells; type: in vitro ADME; settings: VERO-E6, 60 min incubation, 50 μM at t = 0
Description: as §1, §2, §3, §4, §5, §6

[4] = in vitro; settings: African green monkey
[5] = system: SARS-CoV-2; experiment: microbe, parasite or virus in culture; type: cell-based; settings: Severe acute respiratory syndrome coronavirus 2, 72 h; Calu-3 cells, MOI~0.03, 3 days incubation, CPE by XTT; read-out: EC50 (anti-SARS-CoV-2 activity)
[6] = system: CCRF-CEM cells; experiment: Steady-state intracellular uptake in CCRF-CEM cells; type: in vitro ADME; settings: 60 min incubation, 50 μM at t = 0
Description: as §1, §2
as §5, with “Steady-state cellular uptake was measured in CCRF-CEM cells (ATCC, CRL-119), VERO-E6 cells (ATCC, CRL-1586) and Calu-3 cells (HTB-55), respectively. Suspension cells (CCRF-CEM) were treated as follows: Prior to the experiment, cells were washed by centrifugation (250 x g, 5 min) in prewarmed (37 °C) serum-free RPMI medium and resuspended in the same vehicle to a concentration of 2 x 10^7 cells per mL. The cell suspension was distributed into the microtubes in 500 μL aliquots (10^7 cells), and the uptake process was initiated by the addition of 2.5 μL of the 10 mM DMSO solutions of the compounds (50 μM final conc.). Samples were incubated for 60 min at 37 °C in a CO 2 incubator using a rotary stirrer. The uptake was terminated by centrifugation at 900 x g for 5 min, at +4 °C. The medium was stored at −20 °C for later” for “for later”, “in duplicates. […]” for “in duplicates.”

[7] = as above; type: in vitro ADME; settings: human, CCRF-CEM cells, 60 min incubation, 50 μM at t = 0, read-out: Kp (intracellular accumulation ratio IC/EC)
Description: as §1, §2
as §5, with “Steady-state cellular uptake was measured in CCRF-CEM cells (ATCC, CRL-119), VERO-E6 cells (ATCC, CRL-1586) and Calu-3 cells (HTB-55), respectively. Suspension cells (CCRF-CEM) were treated as follows: Prior to the experiment, cells were washed by centrifugation (250 x g, 5 min) in prewarmed (37 °C) serum-free RPMI medium and resuspended in the same vehicle to a concentration of 2 x 10^7 cells per mL. The cell suspension was distributed into the microtubes in 500 μL aliquots (10^7 cells), and the uptake process was initiated by the addition of 2.5 μL of the 10 mM DMSO solutions of the compounds (50 μM final conc.). Samples were incubated for 60 min at 37 °C in a CO 2 incubator using a rotary stirrer. The uptake was terminated by centrifugation at 900 x g for 5 min, at +4 °C. The medium was stored at −20 °C for later” for “for later”, “in duplicates. […]” for “in duplicates.”

Compound	Plasma stability Rem. at 120 min [1]	Plasma stability T1/2 [1]	Kp at 1 h, 50 µM [2]	EC (extracellular concentration in the media at t = 60 min) ± sd [3]	CC50 at 3 days [4]	pEC50 [5]	EC (extracellular concentration in the media at t = 60 min) ± sd [6]	Kp at 1 h, 50 µM [7]	IC (intracellular concentration in the cells at t = 60 min) ± sd [3]	IC (intracellular concentration in the cells at t = 60 min) ± sd [6]
CCN(C[C@H]1O[C@@H](n2cc(C#Cc3nc4ccccc4[nH]3)c3c(N)ncnc32)[C@H](O)[C@@H]1O)S(=O)(=O)c1ccc(OC)c(C#N)c1 [Compound 12a]	119.2 ± 6.0%	Stable	822	42 ± 3.2 µM	> 100 µM	< 4.00	34 ± 0 µM	188		
CCN(C[C@H]1O[C@@H](n2cc(C#Cc3cnc4ccccc4c3)c3c(N)ncnc32)[C@H](O)[C@@H]1O)S(=O)(=O)c1ccc(OC)c(C#N)c1 [Compound 12e]	120.8 ± 10.5%	Stable	608	16.5 ± 3.6 µM	> 100 µM	< 4.00	0.2 ± 0.0 µM			
CCN(C[C@H]1O[C@@H](n2cc(C#Cc3ccc(N)nc3)c3c(N)ncnc32)[C@H](O)[C@@H]1O)S(=O)(=O)c1ccc(OC)c(C#N)c1 [Compound 12h]	108.2 ± 4.2%	Stable	885	19.5 ± 2.0 µM	> 100 µM	< 4.00	14 ± 1 µM	480		
CCN(C[C@H]1O[C@@H](n2cc(C#Cc3cccnc3)c3c(N)ncnc32)[C@H](O)[C@@H]1O)S(=O)(=O)c1ccc(OC)c(C#N)c1 [Compound 12l]	109.9 ± 1.0%	Stable	225	17.1 ± 2.9 µM	> 100 µM	< 4.00	29 ± 0 µM	163		
CCN(C[C@H]1O[C@@H](n2cc(C#Cc3ccc(C(N)=O)cc3)c3c(N)ncnc32)[C@H](O)[C@@H]1O)S(=O)(=O)c1ccc(OC)c(C#N)c1 [Compound 12o]	115.4 ± 3.7%	Stable	247	20.9 ± 0.8 µM	> 100 µM	< 4.00	13 ± 3 µM	694		
COc1ccc(S(=O)(=O)N(C)C[C@H]2O[C@@H](n3cc(C#Cc4cnc5ccccc5c4)c4c(N)ncnc43)[C@H](O)[C@@H]2O)cc1C#N [Compound 12q]	113.2 ± 3.7%	Stable		0.1 ± 0.1 µM	> 100 µM	< 4.00	0.6 ± 0.1 µM	5320	18,533 ± 7709 μM	
COc1ccc(S(=O)(=O)N(C)C[C@H]2O[C@@H](n3cc(C#Cc4ccc(C(N)=O)cc4)c4c(N)ncnc43)[C@H](O)[C@@H]2O)cc1C#N [Compound 12r]	113.5 ± 6.0%	Stable		1.1 ± 0.5 µM	> 100 µM	< 4.00	12 ± 6 µM	897	19,777 ± 7485 μM	10,708 ± 358 μM
COc1ccc(S(=O)(=O)N(C)C[C@H]2O[C@@H](n3cc(C#Cc4cccnc4)c4c(N)ncnc43)[C@H](O)[C@@H]2O)cc1C#N [Compound 12s]	102.7 ± 3.4%	Stable	5210	2.6 ± 2.3 µM	> 100 µM	< 4.00	15 ± 3 µM	604	13,578 ± 3626 μM	
